Measurements as given in patent US20090088345A1, “NECESSARY AND SUFFICIENT REAGENT SETS FOR CHEMOGENOMIC ANALYSIS” (priority 2004, published 2009).

Tested on: PPARα signature
Experiment: Scalar product (signature score) of compound treatments against PPARα gene signatures from rat liver microarray expression profiles
Type: in vivo
Details: previous observation, original PPARα signature
Protocol: “Scalar product” (or “Signature score”) as used herein refers to the sum of impacts for all genes in a signature less the bias for that signature.
The detailed description of the construction of this chemogenomic dataset is described in Examples 1 and 2 of Published U.S. Pat. Appl. No. 2005/0060102 A1, published Mar. 17, 2005, which is hereby incorporated by reference for all purposes. Briefly, in vivo short-term repeat dose rat studies were conducted on over 580 test compounds, including marketed and withdrawn drugs, environmental and industrial toxicants, and standard biochemical reagents. Rats (three per group) were dosed daily at either a low or high dose. The low dose was an efficacious dose estimated from the literature and the high dose was an empirically-determined maximum tolerated dose, defined as the dose that causes a 50% decrease in body weight gain relative to controls during the course of the 5 day range finding study. Animals were necropsied on days 0.25, 1, 3, and 5 or 7. […]
Log10-ratios are computed for each gene as the difference of the averaged logs of the experimental signals from (usually) three drug-treated animals and the averaged logs of the control signals from (usually) 20 mock vehicle-treated animals. To assign a significance level to each gene expression change, the standard error for the measured change between the experiments and controls is computed. […]

CC(C)(Oc1ccc(Cl)cc1)C(=O)O [clofibric acid]
scalar product against the PPARα signature: weakest of the known PPARα agonists
